Read-outs that look alike come from different tables or passages of the source.
Legend:
IPC-81 rat AML cells = test: Anti-AML activity, WST-1 viability (Example 72); assay type: cell-based; details: IPC81, IPC-81 cells
Outline: (§1)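 Rat IPC-81 cells in DMEM with 10% horse serum and Molm13 cells in RPMI with 10% FBS, seeded at 150 000 cells/ml with compound dilution series. After 22 h exposure, WST-1 added for a further 2 h; absorbance read at 450 nm (620 nm reference) as viability.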

Molm13 cells = test: Anti-AML activity, WST-1 viability (Example 72); assay type: cell-based; details: Homo sapiens, Molm 13 cells, WST-1
Outline: as §1

hepG2 = test: Cytotoxicity (Example 73, Table 2); assay type: cell-based; details: Homo sapiens; hepG2, 24 hours of incubation; read-out: EC50 (μM) hepG2
[1] = Parallel artificial membrane permeability assay (PAMPA); details: PAMPA, 50 μM in PBS, room temperature, five hours
[2] = system: methicillin-resistant S. aureus MRSA A4-37; test: Microbroth dilution MIC; assay type: cell-based; details: compound alone
Method: (§2) Day 1: • Plate bacterial strain(s) on appropriate media: • Gram-negative bacteria with ESBLs or carbapenemases: green agar plates with 100 mg/L ampicillin • Gram-negative bacteria without β-lactamases: green agar plates • Gram-positive bacteria (Staphylococci and Enterococci): blood agar plates • Incubate o.n. at 37° C.
(§3) Prepare the Bacterial Inoculum: • Prepare a 0.5 McFarland suspension of bacteria in 0.85% NaCl. (Should be used within 15 min of preparation). • Dilute the 0.5 McFarland suspension 1:100 into MH broth.
(§4) Check the inoculum by diluting the prepared bacterial suspension 1:100 (10 μl bacterial suspension+990 μl 0.85% NaCl). Plate 10 μl of the dilution on MH agar plates (×2). Incubate o.n. at 37° C., count the colonies and calculate the final CFU/ml inoculum in the plate by multiplying the average number of colonies with 10000 and divide by 2. The final inoculum should be between 3-7×10^5 CFU/ml. • Add 50 μl of the prepared bacterial suspension to each well in the microtiter plate except negative growth control.
(§5) Preparation of Compounds/Antibiotics • Calculate the desired concentration-range and volume of the compounds/antibiotics in the assay. For antibiotics this will depend on the MIC to meropenem of the bacterial strains to be tested. Dilute the stock solution in MH broth. Make subsequent 2-fold dilutions in MH broth of the desired concentrations if a concentration range is to be tested (remember the extra dilution factor in the assay plate). Always include extra volume for pipetting. Take into consideration stock solutions that are made in buffers that have an effect on bacterial growth (e.g. DMSO).
(§6) This experimental design was used for the results in Tables 4 and 5 below. In Table 4, inhibitor concentration dependency on the MIC of meropenem was studied.

[3] = system: vancomycin-resistant E. faecium vanA A1-22; test: Microbroth dilution MIC; assay type: cell-based; details: compound alone
Method: as §2, §3, §4, §5, §6

COc1cccc2c1[n+]([O-])c1cccc(O)c1[n+]2O [Example 5a, 1-hydroxy-6-methoxyphenazine 5.10-dioxide, reference compound]
IC50 (IPC-81 rat AML cells; 2% O2, 24 h of incubation, WST-1, read-out: IPC-81 IC50 2% O2): 3.2 µM
IC50 (IPC-81 rat AML cells; 20% O2, 24 h of incubation, WST-1, read-out: IPC-81 IC50 20% O2): 2.4 µM
IC50 (Molm13 cells; 2% O2, 24 h of incubation, read-out: Molm 13 IC50 2% O2): 1.1 µM
IC50 (Molm13 cells; 20% O2, 24 h of incubation, read-out: Molm 13 IC50 20% O2): 1.4 µM
EC50 (hepG2): 70 µM
LogPeff [1]: −5.29
MIC A4-37 S. aureus MRSA [2]: < 0.5 µg/mL
MIC A1-22 E. faecium vanA [3]: < 8 µg/mL
